Assay results published in patent US12495798B2, “Nicotinamide compound and herbicidal composition comprising compound” (KOREA RESEARCH INSTITUTE OF CHEMICAL TECHNOLOGY, priority 2019, dated 2025).

What was measured:
Type in all cases: in vivo
sorghum [1] = assay: Herbicidal activity test against upland field weeds (foliar treatment test); design: key to Foliar treatment herbicidal activity, Sorghum: 0 (no control); 100 (complete control); details: 50 g ai/ha, scale 0-100; for plant injury at 50 g/ha: Sorghum
In short: (§1)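 Visual 0–100 control ratings relative to untreated plants, taken 14 (or 21) days after spraying foliage at 50 or 75 g a.i./ha. Spray solution: 50% acetone with 0.1% Tween-20; plants kept in greenhouse at 30±5 °C, 14 h light/10 h dark.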

barnyard grass = assay: as above; design: key to Foliar treatment herbicidal activity, barnyard grass: 0 (no control); 100 (complete control); details: 50 g ai/ha, scale 0-100; for pest or weed control at 50 g/ha: Echinochloa crus-galli
In short: as §1

fall panicum = assay: as above; details: 50 g ai/ha, scale 0-100; for pest or weed control at 50 g/ha: Panicum dichotomiflorum
In short: as §1

indian jointvetch = assay: as above; design: key to Foliar treatment herbicidal activity, Indian jointvetch: 0 (no control); 100 (complete control); details: 50 g ai/ha, scale 0-100
In short: as §1

cocklebur [2] = assay: as above; design: key to Foliar treatment herbicidal activity, Cocklebur: 0 (no control); 100 (complete control); details: 50 g ai/ha, scale 0-100; for pest or weed control at 50 g/ha: Xanthium strumarium
In short: as §1

sorghum [3] = assay: Herbicidal activity test against upland field weeds (soil treatment test); design: key to Soil treatment herbicidal activity, Sorghum: 0 (no control); 100 (complete control); details: 50 g ai/ha, scale 0 (no control) to 100 (complete control)
In short: (§2)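 Weed control scored visually on a 0 (none) to 100 (complete) scale versus untreated pots at 14 or 21 days in greenhouse (30±5 °C, 14 h light). Test compounds, 50 or 75 g a.i./ha in 50% acetone/0.1% Tween-20, hand-sprayed onto soil one day post-sowing.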

quack grass = assay: as above; design: key to Soil treatment herbicidal activity, quack grass: 0 (no control); 100 (complete control); details: 50 g ai/ha, scale 0 (no control) to 100 (complete control)
In short: as §2

velvetleaf = assay: as above; design: key to Soil treatment herbicidal activity, velvet leaf: 0 (no control); 100 (complete control); details: 50 g ai/ha, scale 0 (no control) to 100 (complete control)
In short: as §2

cocklebur [4] = assay: as above; design: key to Soil treatment herbicidal activity, Cocklebur: 0 (no control); 100 (complete control); details: 50 g ai/ha, scale 0 (no control) to 100 (complete control)
In short: as §2

corn = assay: Phytotoxicity test for upland field crops (foliar treatment test); design: key: 0 (no harm); 9 (complete withered)
In short: (§3)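 Post-emergence spray at 19–300 g a.i./ha (acetone/Tween-20 diluent, 100 ml/m²) onto greenhouse-grown plants. Damage rated 7 and 14 (optionally 21) days later on a 0–9 scale relative to untreated plants.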

cotton = assay: as above; design: key: 0 (no harm); 9 (complete withered)
In short: as §3

rice = assay: as above; design: key: 0 (no harm); 9 (complete withered)
In short: as §3

soybean = assay: as above; design: key: 0 (no harm); 9 (complete withered)
In short: as §3

wheat = assay: as above; design: key: 0 (no harm); 9 (complete withered)
In short: as §3

[5] = 50 g ai/ha, Corn (7 days after treatment)
[6] = 50 g ai/ha, Corn (14 days after treatment)
[7] = 100 g ai/ha, Corn (7 days after treatment)
[8] = 100 g ai/ha, Corn (14 days after treatment)
[9] = 50 g ai/ha, Cotton (7 days after treatment)
[10] = 50 g ai/ha, Cotton (14 days after treatment)
[11] = 100 g ai/ha, Cotton (7 days after treatment)
[12] = 100 g ai/ha, Cotton (14 days after treatment)
[13] = 50 g ai/ha, Rice (7 days after treatment)
[14] = 50 g ai/ha, Rice (14 days after treatment)
[15] = 100 g ai/ha, Rice (7 days after treatment)
[16] = 100 g ai/ha, Rice (14 days after treatment)
[17] = 50 g ai/ha, Soybean (7 days after treatment)
[18] = 50 g ai/ha, Soybean (14 days after treatment)
[19] = 100 g ai/ha, Soybean (7 days after treatment)
[20] = 100 g ai/ha, Soybean (14 days after treatment)
[21] = 50 g ai/ha, Wheat (7 days after treatment)
[22] = 50 g ai/ha, Wheat (14 days after treatment)
[23] = 100 g ai/ha, Wheat (7 days after treatment)
[24] = 100 g ai/ha, Wheat (14 days after treatment)

Row | Compound | Soil treatment herbicidal activity, quack grass (quack grass) | Soil treatment herbicidal activity, Cocklebur (cocklebur [4]) | Foliar treatment phytotoxicity, Corn (corn; [5]) | Foliar treatment phytotoxicity, Corn (corn; [6]) | Foliar treatment phytotoxicity, Corn (corn; [7]) | Foliar treatment phytotoxicity, Corn (corn; [8]) | Foliar treatment phytotoxicity, Cotton (cotton; [9]) | Foliar treatment phytotoxicity, Cotton (cotton; [10]) | Foliar treatment phytotoxicity, Cotton (cotton; [11]) | Foliar treatment phytotoxicity, Cotton (cotton; [12]) | Foliar treatment phytotoxicity, Rice (rice; [13]) | Foliar treatment phytotoxicity, Rice (rice; [14]) | Foliar treatment phytotoxicity, Rice (rice; [15]) | Foliar treatment phytotoxicity, Rice (rice; [16]) | Foliar treatment phytotoxicity, Soybean (soybean; [17]) | Foliar treatment phytotoxicity, Soybean (soybean; [18]) | Foliar treatment phytotoxicity, Soybean (soybean; [19]) | Foliar treatment phytotoxicity, Soybean (soybean; [20]) | Foliar treatment phytotoxicity, Wheat (wheat; [21]) | Foliar treatment phytotoxicity, Wheat (wheat; [22]) | further results
1 | COC(=O)OC(C)N(C(=O)c1ccc(C(F)(F)F)nc1COCc1nnn(C)n1)c1nnnn1C (stereo not shown) [Compound No. 4-4, methyl(1-(N-(1-methyl-1H-tetrazol-5-yl)-2-(((2-methyl-2H-tetrazol-5-yl)methoxy)methyl)-6-(trifluoromethyl)nicotinamido)ethyl)carbonate] | 0 | 0 | 0 | 0 | 0 | 0 | 0 | 0 | 0 | 0 | 4 | 4 | 4 | 4 | 0 | 0 | 0 | 0 | 1 | 0 | Foliar treatment herbicidal activity, Sorghum (sorghum [1]): 100; Foliar treatment herbicidal activity, barnyard grass (barnyard grass): 100; Foliar treatment herbicidal activity, Fall panicum (fall panicum): 98; Foliar treatment herbicidal activity, Indian jointvetch (indian jointvetch): 100; Foliar treatment herbicidal activity, Cocklebur (cocklebur [2]): 98; Soil treatment herbicidal activity, Sorghum (sorghum [3]): 0; Soil treatment herbicidal activity, velvet leaf (velvetleaf): 100; Foliar treatment phytotoxicity, Wheat (wheat; [23]): 2; Foliar treatment phytotoxicity, Wheat (wheat; [24]): 2
2 | Cn1nnnc1COCc1nc(C(F)(F)F)ccc1C(=O)Nc1nnnn1C [Compound No. 1-61, N-(1-methyl-1H-tetrazol-5-yl)-2-(((1-methyl-1H-tetrazol-5-yl)methoxy)methyl)-6-(trifluoromethyl)nicotinamide] | 0 | 0 | 0 | 0 | 0 | 0 | 3 | 6 | 0 | 7 | 4 | 6 | 5 | 6 | 6 | 9 | 0 | 9 | 4 | 3 | plant injury at 50 g/ha (sorghum [1]): 20%; pest or weed control at 50 g/ha (barnyard grass): 95%; pest or weed control at 50 g/ha (fall panicum): 70%; Foliar treatment herbicidal activity, Indian jointvetch (indian jointvetch): 100; pest or weed control at 50 g/ha (cocklebur [2]): 98%; Soil treatment herbicidal activity, Sorghum (sorghum [3]): 0; pest or weed control at 50 g/ha (velvetleaf; Abutilon theophrasti, read-out: Soil treatment herbicidal activity, velvet leaf): 90%; Foliar treatment phytotoxicity, Wheat (wheat; [23]): 0; Foliar treatment phytotoxicity, Wheat (wheat; [24]): 6
3 | Cn1nnc(COCc2nc(C(F)(F)C(F)(F)F)ccc2C(=O)Nc2nnnn2C)n1 [Compound No. 2-81, N-(1-methyl-1H-tetrazol-5-yl)-2-(((2-methyl-2H-tetrazol-5-yl)methoxy)methyl)-6-(perfluoroethyl)nicotinamide] | 0 | 100 | 2 | 1 | 2 | 1 | 4 | 9 | 4 | 9 | 5 | 3 | 6 | 5 | 5 | 6 | 6 | 7 | 0 | 0 | plant injury at 50 g/ha (sorghum [1]): 40%; pest or weed control at 50 g/ha (barnyard grass): 80%; pest or weed control at 50 g/ha (fall panicum): 70%; pest or weed control at 50 g/ha (indian jointvetch): 80%; pest or weed control at 50 g/ha (cocklebur [2]): 95%; plant injury at 50 g/ha (sorghum [3]; Sorghum): 50%; Soil treatment herbicidal activity, velvet leaf (velvetleaf): 100; Foliar treatment phytotoxicity, Wheat (wheat; [23]): 0; Foliar treatment phytotoxicity, Wheat (wheat; [24]): 0
4 | Cn1nnnc1COc1nc(C(F)(F)F)ccc1C(=O)Nc1nnnn1C [Compound No. 1-1, N-(1-methyl-1H-tetrazol-5-yl)-2-((1-methyl-1H-tetrazol-5-yl)methoxy)-6-(trifluoromethyl)nicotinamide] | 0 | 0 | 2 | 2 | 4 | 4 | 3 | 0 | 3 | 7 | 4 | 8 | 6 | 9 | 7 | 0 | 8 | 9 | 1 | 1 | plant injury at 50 g/ha (sorghum [1]): 70%; pest or weed control at 50 g/ha (barnyard grass): 98%; pest or weed control at 50 g/ha (fall panicum): 95%; pest or weed control at 50 g/ha (indian jointvetch): 30%; Foliar treatment herbicidal activity, Cocklebur (cocklebur [2]): 100; Soil treatment herbicidal activity, Sorghum (sorghum [3]): 0; Soil treatment herbicidal activity, velvet leaf (velvetleaf): 100; Foliar treatment phytotoxicity, Wheat (wheat; [23]): 3; Foliar treatment phytotoxicity, Wheat (wheat; [24]): 2
5 | Cn1nc(COCc2nc(C(F)(F)F)ccc2C(=O)Nc2nnnn2C)nc1Cl [Compound No. 2-135, 2-(((5-chloro-1-methyl-1H-1,2,4-triazol-3-yl)methoxy)methyl)-N-(1-methyl-1H-tetrazol-5-yl)-6-(trifluoromethyl)nicotinamide] | 0 | 0 | 0 | 0 | 0 | 0 | 3 | 7 | 3 | 7 | 3 | 6 | 4 | 6 | 4 | 6 | 4 | 7 | 0 | 0 | plant injury at 50 g/ha (sorghum [1]): 30%; pest or weed control at 50 g/ha (barnyard grass): 98%; pest or weed control at 50 g/ha (fall panicum): 50%; pest or weed control at 50 g/ha (indian jointvetch): 95%; pest or weed control at 50 g/ha (cocklebur [2]): 95%; Soil treatment herbicidal activity, Sorghum (sorghum [3]): 0; Soil treatment herbicidal activity, velvet leaf (velvetleaf): 0; Foliar treatment phytotoxicity, Wheat (wheat; [23]): 0; Foliar treatment phytotoxicity, Wheat (wheat; [24]): 0
